Experimental data taken from patent US20250041429A1, “COMPOUND HAVING BTK PROTEIN DEGRADATION ACTIVITY, AND MEDICAL USES THEREOF” (UBIX THERAPEUTICS, INC., priority 2021, published 2025).

Target: T1, BTK protein (Homo sapiens, UniProt Q06187)
T1 construct: endogenous in cells; host or cells: TMD-8 cells
Assay: Measurement of BTK protein degradation ability in TMD-8 cells (Western blotting)
Type: cell-based
Conditions: harvested after 24 hours; for BTK degradation (%) 1 nM: compound 1 nM; for BTK degradation (%) 10 nM: compound 10 nM; for BTK degradation (%) 100 nM: compound 100 nM
Outline: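 TMD-8 cells (1×10^6/mL) were treated for 24 h with compound at 0.1, 1, 10 μM or 0.0001–0.1 μM, with DMSO as vehicle control. RIPA lysates were normalized by BCA assay. BTK was detected by Western blot with anti-BTK, using GAPDH or β-actin as loading controls, and imaged on LI-COR Odyssey.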

T1 sequence (Q06187 whole entry): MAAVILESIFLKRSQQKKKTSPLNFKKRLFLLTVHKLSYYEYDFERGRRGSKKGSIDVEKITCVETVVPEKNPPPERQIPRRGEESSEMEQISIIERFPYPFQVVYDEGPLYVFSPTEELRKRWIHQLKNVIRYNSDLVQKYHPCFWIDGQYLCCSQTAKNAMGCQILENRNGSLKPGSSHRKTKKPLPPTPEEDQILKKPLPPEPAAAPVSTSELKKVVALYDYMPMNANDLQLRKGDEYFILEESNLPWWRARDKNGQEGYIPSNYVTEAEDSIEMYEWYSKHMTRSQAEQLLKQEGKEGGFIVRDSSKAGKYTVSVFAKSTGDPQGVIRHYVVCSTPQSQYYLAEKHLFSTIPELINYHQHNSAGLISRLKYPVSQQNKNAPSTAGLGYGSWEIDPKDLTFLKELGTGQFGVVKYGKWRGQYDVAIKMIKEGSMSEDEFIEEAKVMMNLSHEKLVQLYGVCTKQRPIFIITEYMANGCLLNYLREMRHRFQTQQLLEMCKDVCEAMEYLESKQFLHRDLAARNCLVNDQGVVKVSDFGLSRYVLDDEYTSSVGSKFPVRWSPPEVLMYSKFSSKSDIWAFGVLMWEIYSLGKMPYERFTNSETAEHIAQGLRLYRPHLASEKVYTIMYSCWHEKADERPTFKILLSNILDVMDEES

In the case of `Cc1cc(-c2ccnc(Nc3ccc(N4CCN(CC5CCN(c6ccc(N7CCC(=O)NC7=O)cc6)CC5)CC4)cc3)n2)ccc1CNC(=O)N1CC(OC(C)C)C1` [Example 66, N-(4-(2-((4-(4-((1-(4-(2,4-dioxotetrahydropyrimidin-1 (2H)-yl)phenyl)piperidin-4-yl)methyl)piperazin-1-yl)phenyl)amino)pyrimidin-4-yl)-2-methylbenzyl)-3-isopropoxyazetidine-1-carboxamide], the “BTK degradation (%) 1 nM” value is reported as 28.0%, the “BTK degradation (%) 10 nM” value is reported as 91.5% and the “BTK degradation (%) 100 nM” value is reported as 98.5%.

With `Cc1cc(-c2ccnc(Nc3ccc(N4CCN(CC5CCN(c6ccc7c(c6)C(=O)N(C6CCC(=O)NC6=O)C7=O)CC5)CC4)cc3)n2)ccc1CNC(=O)c1cnn(C(C)(C)C)c1` (stereo not shown) [Example 8, 1-(tert-butyl)-N-(4-(2-((4-(4-((1-(2-(2,6-dioxopiperidin-3-yl)-1,3-dioxoisoindolin-5-yl)piperidin-4-yl)methyl)piperazin-1-yl)phenyl)amino)pyrimidin-4-yl)-2-methylbenzyl)-1H-pyrazole-4-carboxamide] the “BTK degradation (%) 10 nM” value was 89.5% and the “BTK degradation (%) 100 nM” value was 97.5%.

For `Cc1cc(-c2ccnc(Nc3ccc(C4CCN(CC5CCN(c6cccc(N7CCC(=O)NC7=O)c6)CC5)CC4)cc3)n2)ccc1CNC(=O)c1cn(C(C)(C)C)nn1` [Example 78, 1-(tert-butyl)-N-(4-(2-((4-(1-((1-(3-(2,4-dioxotetrahydropyrimidin-1 (2H)-yl)phenyl)piperidin-4-yl)methyl)piperidin-4-yl)phenyl)amino)pyrimidin-4-yl)-2-methylbenzyl)-1H-1,2,3-triazole-4-carboxamide], the “BTK degradation (%) 1 nM” value was 43.5%, the “BTK degradation (%) 10 nM” value was 93.5% and the “BTK degradation (%) 100 nM” value was 99.0%.

With `Cc1cc(-c2ccnc(Nc3ccc(C4CCN(C5CCN(C(=O)c6cccc(NC7CCC(=O)NC7=O)c6)CC5)CC4)cc3)n2)ccc1CNC(=O)N1CC(OC(C)C)C1` (stereo not shown) [Example 104, N-(4-(2-((4-(1′-(3-((2,6-dioxopiperidin-3-yl)amino)benzoyl)-[1,4′-bipiperidin]-4-yl)phenyl)amino)pyrimidin-4-yl)-2-methylbenzyl)-3-isopropoxyazetidine-1-carboxamide] the “BTK degradation (%) 1 nM” value was −9.0%, the “BTK degradation (%) 10 nM” value was 39.0% and the “BTK degradation (%) 100 nM” value was 95.5%.

For `Cc1cc(-c2ccnc(Nc3ccc(N4CCN(CC5CCN(c6ccc(OC7CCC(=O)NC7=O)cc6)CC5)CC4)cc3)n2)ccc1CNC(=O)N1CC(OC(C)C)C1` (stereo not shown) [Example 43, N-(4-(2-((4-(4-((1-(4-((2,6-dioxopiperidin-3-yl)oxy)phenyl)piperidin-4-yl)methyl)piperazin-1-yl)phenyl)amino)pyrimidin-4-yl)-2-methylbenzyl)-3-isopropoxyazetidine-1-carboxamide], the “BTK degradation (%) 1 nM” value was 83.0%, the “BTK degradation (%) 10 nM” value was 100.0% and the “BTK degradation (%) 100 nM” value was 100.0%.

For `Cc1cc(-c2ccnc(Nc3cnn(C4CCN(CC5CCN(c6ccc7c(c6)C(=O)N(C6CCC(=O)NC6=O)C7=O)CC5)CC4)c3)n2)ccc1CNC(=O)c1cn(C(C)(C)C)nn1` (stereo not shown) [Example 39, 1-(tert-butyl)-N-(4-(2-((1-(1-((1-(2-(2,6-dioxopiperidin-3-yl)-1,3-dioxoisoindolin-5-yl)piperidin-4-yl)methyl)piperidin-4-yl)-1H-pyrazol-4-yl)amino)pyrimidin-4-yl)-2-methylbenzyl)-1H-1,2,3-triazole-4-carboxamide], the “BTK degradation (%) 1 nM” value was 65.5%, the “BTK degradation (%) 10 nM” value was 93.5% and the “BTK degradation (%) 100 nM” value was 98.5%.

In the case of `Cc1cc(-c2ccnc(Nc3ccc(N4CCN(CC5CCN(c6cccc(NC7CCC(=O)NC7=O)c6)CC5)CC4)cc3)n2)ccc1CNC(=O)c1cnn(C(C)C)c1` (stereo not shown) [Example 57, N-(4-(2-((4-(4-((1-(3-((2,6-dioxopiperidin-3-yl)amino)phenyl)piperidin-4-yl)methyl)piperazin-1-yl)phenyl)amino)pyrimidin-4-yl)-2-methylbenzyl)-1-isopropyl-1H-pyrazole-4-carboxamide], the “BTK degradation (%) 1 nM” value is reported as 54.0%, the “BTK degradation (%) 10 nM” value is reported as 95.0% and the “BTK degradation (%) 100 nM” value is reported as 99.5%.

In the case of `Cc1cc(-c2ccnc(Nc3ccc(CN4CCN(CC5CCN(c6cccc(OC7CCC(=O)NC7=O)c6)CC5)CC4)cc3)n2)ccc1CNC(=O)N1CC(OC(C)C)C1` (stereo not shown) [Example 63, N-(4-(2-((4-((4-((1-(3-((2,6-dioxopiperidin-3-yl)oxy)phenyl)piperidin-4-yl)methyl)piperazin-1-yl)methyl)phenyl)amino)pyrimidin-4-yl)-2-methylbenzyl)-3-isopropoxyazetidine-1-carboxamide], the “BTK degradation (%) 1 nM” value is reported as 29.0%, the “BTK degradation (%) 10 nM” value is reported as 83.0% and the “BTK degradation (%) 100 nM” value is reported as 97.5%.

With `Cc1cc(NC(=O)N2CC(OC(C)C)C2)cc(-c2ccnc(Nc3ccc(N4CCN(CC5CCN(c6ccc7c(c6)C(=O)N(C6CCC(=O)NC6=O)C7=O)CC5)CC4)cc3)n2)c1` (stereo not shown) [Example 29, N-(3-(2-((4-(4-((1-(2-(2,6-dioxopiperidin-3-yl)-1,3-dioxoisoindolin-5-yl)piperidin-4-yl)methyl)piperazin-1-yl)phenyl)amino)pyrimidin-4-yl)-5-methylphenyl)-3-isopropoxyazetidine-1-carboxamide] the “BTK degradation (%) 1 nM” value was 7%, the “BTK degradation (%) 10 nM” value was 40.5% and the “BTK degradation (%) 100 nM” value was 81.5%.

`Cc1cc(-c2ccnc(Nc3ccc(CN4CCC(CN5CCC(c6cccc(N7CCC(=O)NC7=O)c6)CC5)CC4)cc3)n2)ccc1CNC(=O)c1cn(C(C)(C)C)nn1` [Example 140] was tested, and the “BTK degradation (%) 1 nM” value was 0.5%, the “BTK degradation (%) 10 nM” value was 10.5% and the “BTK degradation (%) 100 nM” value was 77.0%.

`Cc1cc(-c2ccnc(Nc3ccc(N4CCN(C5CCN(C(=O)c6cccc(NC7CCC(=O)NC7=O)c6)CC5)CC4)cc3)n2)ccc1CNC(=O)N1CC(OC(C)C)C1` (stereo not shown) [Example 103, N-(4-(2-((4-(4-(1-(3-((2,6-dioxopiperidin-3-yl)amino)benzoyl)piperidin-4-yl)piperazin-1-yl)phenyl)amino)pyrimidin-4-yl)-2-methylbenzyl)-3-isopropoxyazetidine-1-carboxamide] was tested, and the “BTK degradation (%) 1 nM” value was −12.5%, the “BTK degradation (%) 10 nM” value was 69.0% and the “BTK degradation (%) 100 nM” value was 97.0%.

With `Cc1cc(-c2ccnc(Nc3ccc(C4CCN(CC5CN(c6ccc7c(c6)C(=O)N(C6CCC(=O)NC6=O)C7=O)C5)CC4)nc3)n2)ccc1CNC(=O)N1CC(OC(C)C)C1` (stereo not shown) [Example 20, N-(4-(2-((6-(1-((1-(2-(2,6-dioxopiperidin-3-yl)-1,3-dioxoisoindolin-5-yl)azetidin-3-yl)methyl)piperidin-4-yl)pyridin-3-yl)amino)pyrimidin-4-yl)-2-methylbenzyl)-3-isopropoxyazetidine-1-carboxamide] the “BTK degradation (%) 1 nM” value was 49%, the “BTK degradation (%) 10 nM” value was 92% and the “BTK degradation (%) 100 nM” value was 98.5%.

In the case of `Cc1c(NC(=O)c2cn(C(C)(C)C)nn2)cc(F)cc1-c1ccnc(Nc2ccc(N3CCN(CC4CCN(c5ccc6c(c5)C(=O)N(C5CCC(=O)NC5=O)C6=O)CC4)CC3)cc2)n1` (stereo not shown) [Example 25, 1-(tert-butyl)-N-(3-(2-((4-(4-((1-(2-(2,6-dioxopiperidin-3-yl)-1,3-dioxoisoindolin-5-yl)piperidin-4-yl)methyl)piperazin-1-yl)phenyl)amino)pyrimidin-4-yl)-5-fluoro-2-methylphenyl)-1H-1,2,3-triazole-4-carboxamide], the “BTK degradation (%) 10 nM” value is reported as 8.5% and the “BTK degradation (%) 100 nM” value is reported as 24%.

For `Cc1cc(-c2ccnc(Nc3ccc(N4CCN(C5CCN(c6ccc7c(c6)C(=O)N(C6CCC(=O)NC6=O)C7=O)CC5)CC4)cc3)n2)ccc1CNC(=O)N1CC(OC(C)C)C1` (stereo not shown) [Example 109, N-(4-(2-((4-(4-(1-(2-(2,6-dioxopiperidin-3-yl)-1,3-dioxoisoindolin-5-yl)piperidin-4-yl)piperazin-1-yl)phenyl)amino)pyrimidin-4-yl)-2-methylbenzyl)-3-isopropoxyazetidine-1-carboxamide], the “BTK degradation (%) 1 nM” value was 41.5%, the “BTK degradation (%) 10 nM” value was 94.0% and the “BTK degradation (%) 100 nM” value was 99.5%.

For `Cc1c(NC(=O)N2CC(OC(C)C)C2)cc(F)cc1-c1ccnc(Nc2ccc(N3CCN(CC4CCN(CC(=O)Nc5cccc(NC6CCC(=O)NC6=O)c5)CC4)CC3)cc2)n1` (stereo not shown) [Example 106, N-(3-(2-((4-(4-((1-(2-((3-((2,6-dioxopiperidin-3-yl)amino)phenyl)amino)-2-oxoethyl)piperidin-4-yl)methyl)piperazin-1-yl)phenyl)amino)pyrimidin-4-yl)-5-fluoro-2-methylphenyl)-3-isopropoxyazetidine-1-carboxamide], the “BTK degradation (%) 1 nM” value was 1%, the “BTK degradation (%) 10 nM” value was 20% and the “BTK degradation (%) 100 nM” value was 76%.

With `Cc1cc(-c2ccnc(Nc3ccc(C4CCN(CC5CCN(c6ccc7c(c6)C(=O)N(C6CCC(=O)NC6=O)C7=O)CC5)CC4)cc3)n2)ccc1CNC(=O)N1CC(OC(C)C)C1` (stereo not shown) [Example 15, N-(4-(2-((4-(1-((1-(2-(2,6-dioxopiperidin-3-yl)-1,3-dioxoisoindolin-5-yl)piperidin-4-yl)methyl)piperidin-4-yl)phenyl)amino)pyrimidin-4-yl)-2-methylbenzyl)-3-isopropoxyazetidine-1-carboxamide] the “BTK degradation (%) 1 nM” value was 56.5%, the “BTK degradation (%) 10 nM” value was 95.5% and the “BTK degradation (%) 100 nM” value was 99%.

`Cc1cc(-c2ccnc(Nc3ccc(N4CCN(CC5CCN(c6ccc(NC7CCC(=O)NC7=O)cn6)CC5)CC4)cc3)n2)ccc1CNC(=O)c1cnn(C(C)(C)C)c1` (stereo not shown) [Example 60, 1-(tert-butyl)-N-(4-(2-((4-(4-((1-(5-((2,6-dioxopiperidin-3-yl)amino)pyridin-2-yl)piperidin-4-yl)methyl)piperazin-1-yl)phenyl)amino)pyrimidin-4-yl)-2-methylbenzyl)-1H-pyrazole-4-carboxamide] was tested, and the “BTK degradation (%) 1 nM” value was 58.0%, the “BTK degradation (%) 10 nM” value was 96.5% and the “BTK degradation (%) 100 nM” value was 99.5%.
